pKi: −log10 of the molar value. Values after ≈ are worked out from the molar mass of the structure shown. “Also recorded” adds a separate entry of the source.
How the values were obtained:
[1] = MTDIA plasma pharmacokinetics after oral or i.p. dose in CD-1 mice; conditions: in words
MTAP = MTAP (Mus musculus, UniProt Q9CQ65)
[2] = Toxicity in in vitro (2D and 3D culture) and in vivo studies to date; conditions: all in vitro (2D and 3D culture) and in vivo studies to date
[3] = Stability of MTDIA in drinking water (MS method); format: physicochemical; conditions: three days, room temperature
human MTAP = target: T1, human MTAP (Homo sapiens, UniProt Q13126); assay: Inhibition of human MTAP by transition state analogue (Ki*); format: biochemical
T1 sequence (Q13126 1-283): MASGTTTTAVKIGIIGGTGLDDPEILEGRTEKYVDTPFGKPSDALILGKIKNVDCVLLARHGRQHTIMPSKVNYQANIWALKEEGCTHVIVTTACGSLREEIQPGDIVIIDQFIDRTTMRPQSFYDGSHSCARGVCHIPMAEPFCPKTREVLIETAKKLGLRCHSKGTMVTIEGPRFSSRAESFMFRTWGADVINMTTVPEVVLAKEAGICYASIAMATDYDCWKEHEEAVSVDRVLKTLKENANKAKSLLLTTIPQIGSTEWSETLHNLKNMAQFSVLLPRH

[4] = test system: protein receptor and kinase panels; assay: Protein receptor and kinase panels (off-target effects); format: binding
MTA metabolism at MTAP [5] = assay: MTDIA in drinking water of WT mice, serum and BALF MTA; format: in vivo
Protocol: The effect of a range of MTDIA concentrations in drinking water on serum and BALF MTA concentrations in WT mice is explored using protocols similar to those described above, except that MTDIA is delivered in drinking water rather than oral gavage. In preliminary experiments, we calculated that 75 μg/mL of MTDIA in drinking water would deliver a dose of 15 mg/kg per day that we utilized in our single dose experiments (based on estimates of a 25 g mouse drinking […] water per day), and we examined WT mice treated with this dose as well as half of this dose (37.5 μg/mL) relative to mice drinking untreated water. […] Once this dose is established, this dose is tested over three days in our Scnn1b-Tg and CF/Scnn1b-Tg mice to ensure that we observe similar effects in these models.

Scnn1b-Tg mice [6] = assay: Single 15 mg/kg oral gavage dose in WT and Scnn1b-Tg mice
[7] = Metabolic stability in human hepatocytes and microsomes
Scnn1b-Tg mice [8] = assay: 15 mg/kg oral gavage once daily for three days in Scnn1b-Tg mice; format: in vivo, mouse
Protocol: Therefore, we repeated the above study in Scnn1b-Tg mice using 15 mg/kg MTDIA by oral gavage once daily for three days. With the longer treatment, we observed increases in serum (FIG. 8A) and BALF (FIG. 8B) MTA concentrations in treated mice relative to vehicle treated animals (n=13 and 11, respectively), similar to the changes seen with the single dose experiments.
Similar differences were observed when BALF inflammatory cells were analyzed as cell differentials rather than cell counts. These findings provide compelling evidence that MTDIA can act as an anti-inflammatory drug in a chronic airways disease model.

[9] = Acute and seven-day repeat-dose toxicity by gavage in CD-1 mice
Protocol: In CD-1 mice, a single dose of MTDIA was administered by gavage to establish acute toxicity (300, 600 and 1000 mg/kg), or once daily for seven consecutive days (0, 600 and 1000 mg/kg/day) to determine repeat-dose toxicity. Mice were monitored for abnormalities, survival rates, histopathological changes (heart, lung, liver, kidney, spleen, small intestine and stomach were evaluated histopathologically by a board certified pathologist), clinical chemistry and complete blood count (CBC) analysis.

physchem = conditions: PBS, aqueous buffer
MTA metabolism at MTAP [10] = test system: MTA metabolism at MTAP
MTA metabolism at MTAP [11] = test system: MTA metabolism at MTAP; remark: listed apart in the source
Protocol: A) Serum MTA concentrations after single oral dose of various concentrations of MTDIA (range 0.6-150 mg/kg, numbers on graph represent dose in mg/kg MTDIA) as well as a 10 mg/kg dose IV.

[12] = 15 mg/kg once daily, three days

MTAP, sequence (Q9CQ65 whole entry): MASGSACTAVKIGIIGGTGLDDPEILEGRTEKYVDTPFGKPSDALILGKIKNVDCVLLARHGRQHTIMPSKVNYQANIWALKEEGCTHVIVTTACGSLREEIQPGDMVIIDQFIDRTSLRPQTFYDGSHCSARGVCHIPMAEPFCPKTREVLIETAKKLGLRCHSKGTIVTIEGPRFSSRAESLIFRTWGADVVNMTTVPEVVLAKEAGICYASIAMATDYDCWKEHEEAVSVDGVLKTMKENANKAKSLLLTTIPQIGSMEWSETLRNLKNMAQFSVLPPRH

CSC[C@H]1CN(Cc2c[nH]c3c(N)ncnc23)C[C@@H]1O [MTDIA, (3R,4S)-1-[(9-deazaadenin-9-yl)methyl]-3-hydroxy-4-(methylthiomethyl)pyrrolidine]
Oral availability [1]: orally available
Duration of inhibition of MTAP activity in vivo (MTAP; an oral or i.p. dose): > 24 h
Time for MTAP catalytic activity in mouse serum to return to normal (MTAP; single oral dose 15 mg/kg): ≤ 36 h
Time for which catalytic activity of MTAP in mouse serum is completely inhibited (MTAP; single oral dose 15 mg/kg): 24 h
Toxicity observed [2]: No significant toxicity
Stability in drinking water [3]: stable
pKi (human MTAP): 10.07
Affinity for MTAP (human MTAP; in words): picomolar affinity
Off-target effects in protein receptor and kinase panels [4]: minimal off-target effects
Serum MTA concentrations vs. control (MTA metabolism at MTAP [5]; 37.5 μg/mL in drinking water): more than two orders of magnitude higher than control; also recorded: orders of magnitude increases
Serum MTA concentrations vs. control (MTA metabolism at MTAP [5]; 75 μg/mL in drinking water): more than two orders of magnitude higher than control; also recorded: orders of magnitude increases
BALF MTA vs. control (MTA metabolism at MTAP [5]; 37.5 or 75 μg/mL in drinking water): less dramatic increases; also recorded: increased BALF MTA concentrations
BALF inflammatory markers (Scnn1b-Tg mice [6]; after a single dose): did not observe any changes
Serum MTA concentrations (Scnn1b-Tg mice [6]; single 15 mg/kg oral gavage, 24 hours, WT and Scnn1b-Tg mice, 15 mg/kg): increase; also recorded: increases serum MTA
Time metabolically stable ([7]; in vitro, human hepatocytes and microsomes): over 4 hr
Metabolic stability in microsomes and hepatocytes ([7]; in words): metabolically stable
BALF MTA concentrations vs. vehicle (Scnn1b-Tg mice [8]; [12]): increases
Free concentrations of spermine and spermidine in serum or BALF (Scnn1b-Tg mice [8]; [12]): did not observe large changes; also recorded: minimal changes
Serum MTA concentrations vs. vehicle (Scnn1b-Tg mice [8]; [12]): increases; also recorded: increased serum MTA concentrations
Bronchus-associated lymphoid tissue (BALT), lung histology (Scnn1b-Tg mice [8]; three days of MTDIA treatment): meaningfully reduced; also recorded: greatly reduced
Enlarged activated macrophage phenotype (BALF cytospins) (Scnn1b-Tg mice [8]; three days of MTDIA treatment): appears to be reduced; also recorded: resolve to a more WT appearance
BALF macrophage cell counts (Scnn1b-Tg mice [8]; three days oral MTDIA): corresponding increase
BALF eosinophil cell count (Scnn1b-Tg mice [8]; three days oral MTDIA, vehicle 14.2+13.5, p<0.001): 2.2+3.2 ×10^3 cells/ml
BALF neutrophil cell count (Scnn1b-Tg mice [8]; three days oral MTDIA, vehicle 32.0+16.9, p<0.001): 11.5+8.2 ×10^3 cells/ml
LOAEL (Lowest-Observed-Adverse-Effect level) ([9]; CD-1 mice, gavage): 600 mg/kg/day
Histopathological findings ([9]; mouse, in vivo): No histopathological findings were detected
solubility (physchem): 156 mM (≈ 45.8 mg/mL)
Urinary MTA (MTA metabolism at MTAP [10]; 15 mg/kg, mice): approximately 30 μM
Increase of plasma MTA levels (MTA metabolism at MTAP [10]; 15 mg/kg, mice, after 30 min): > 100 fold
Decrease in polyamine concentrations (MTA metabolism at MTAP [10]; an oral or i.p. dose): ~2 fold
MTA accumulation in plasma over baseline levels (MTA metabolism at MTAP [10]; an oral or i.p. dose): > 100 fold
Oral dose yielding maximal response in serum MTA concentrations (MTA metabolism at MTAP [11]; previous experiments, as stated in Example 7): 15 mg/kg
Oral dose with maximum effect on serum MTA concentrations (MTA metabolism at MTAP [11]; single oral dose range 0.6-150 mg/kg (FIG. 7A legend)): 30 mg/kg
